Structures can show the parent of a compound that is named as a salt.
Assays:
Type in all cases: cell-based, mouse
[1] = tested on: HP1-mediated gene repression; assay: UNC2524 structure-activity relationship assay, CiA:Oct4 N118/N163 flow cytometry; details: 10 μM, 48 hrs
Protocol: Day 0, CiA:Oct4 N118/163 cells were grown in ES media and seeded at a density of 10,000 cells per well (100,000 cells/mL) into gelatin coated 96 well plates. Day 1, media was aspirated and replaced with 100 μL fresh ES media containing +/−6 nM rapamycin and 10 μM of each compound derived for SAR. Day 2, culture media was aspirated away and […] fresh ES media containing +/−6 nM rapamycin and 10 μM of compounds were added as on Day 1. Day 3, the media was aspirated out of the wells and the cells were washed with PBS and trypsinized using 0.25% trypsin-EDTA. Trypsin was quenched with serum. Cells were resuspended by pipetting to prepare the plates for flow cytometry analysis as described above.
Compounds 2-8 were chemically synthesized from UNC2524 (compound 1) (FIG. 10A). To ascertain the biological activity of these chemical derivatives, CiA:Oct4 N118/N163 cells were used. Cells were treated with rapamycin plus compounds 2 and 5-8 for 48-hours prior to analysis by flow cytometry. Compound activity was confirmed by an increase in % inhibition compared to control samples. Compounds 5 and 6 added a pentenal chain and BOC group to the piperidine ring while compound 7 substituted a hexyl chain for the pyrrolidine. […] Further, it was identified that the 7-methoxy side chain was amenable to modification with a benzene ring in compound 8, while preserving most of the biological activity (˜51%).
Referring to FIG. 10A, a series of compounds derived from compound 1 (UNC2524) were designed to optimize compound activity and determine amenability of compounds for affinity purification methods. Referring to FIG. 10B, CiA:Oct4 N118/N163 cells were treated with SAR compounds at 10 μM for 48 hrs+/−6 nM rapamycin. Flow cytometry analysis was used to determine the % GFP (+) population. […] (p≤0.05*, 0.01**).

CiA:Oct4 N118/N163 cells = assay: Compound 2 activity and fluorescence microscopy; details: 7.5 μM, 48 hrs
Protocol: Day 0, CiA:Oct4 N118/N163 cells were plated into 96 well plate and 10 or 15 cm plate formats. Day 1, media was aspirated and replaced with fresh ES media +/−7.5 μM compound 2+/−6 nM rapamycin. Day 2, media was aspirated and replaced with fresh ES media +/−7.5 μM compound 2+/−6 nM rapamycin. Day 3, media was removed from 96 well plate and cells were washed with PBS prior to trypsinization and flow cytometry analysis as described above to confirm functional inhibition of compound 2.
Prior to imaging, ES media was removed from 10-15 cm plates and replaced with PBS to decrease background fluorescence. Cells were imaged using an Olympus IX71 microscope analyzed using Cellsens software. Representative images were taken in 2 random plate locations for each of the four conditions. Image levels were normalized using Adobe Photoshop.
In order to confirm that compound 2 was inhibiting H3K9me3 deposition, CiA:Oct4 N118/N163 cells were grown for 48-hours with rapamycin mediating HP1 recruitment, +/−compound 2 (FIG. 11G). Representative brightfield and fluorescence images were taken for the four sample types ((−) rapamycin/(−) compound 2, (−) rapamycin/(+) compound 2, (+) rapamycin/(−) compound 2, (+) rapamycin/(+) compound 2). […] Subsequently, all samples were analyzed by flow cytometry to confirm the inhibitory effects of compound 2 on HP1-mediated gene repression. […]

H3K4me3 = assay: ChIP-qPCR at CiA:Oct4 locus, TSS+489; details: 48 hr treatment, +/- rapamycin
Protocol: (§1) 10-15 cm plates of cells grown to confluence were washed with PBS and trypsinized 10 min with 0.25% trypsin-EDTA. ES media was added to quench the trypsin, and cells were resuspended prior to counting using a Countess II Automated Cell Counter (ThermoFisher). Cell suspension was centrifuged at 300×g for 5 min. Cell pellet was washed with PBS and pelleted at 300×g for 5 min. Cells were resuspended and crosslinked with 1% formaldehyde for 10 min. 2.5 M glycine (0.125 M final) was added and samples were put on ice to stop the crosslinking. Nuclei were isolated by incubating cells on ice for 10 min in CiA NP Rinse 1 (50 mM HEPES pH 8.0, 140 mM NaCl, 1 mM EDTA, 10% glycerol, 0.5% NP40, 0.25% Triton X100). Nuclei were pelleted at 1200×g for 5 min at 4° C. and resuspended in CiA NP Rinse 2 (10 mM Tris pH 8.0, 1 mM EDTA, 0.5 mM EGTA, 200 mM NaCl). Nuclei were pelleted at 1200×g for 5 min at 4° C. Nuclei were resuspended in shearing buffer (0.1% SDS, 1 mM EDTA pH 8, 10 mM Tris HCl, pH 8) and sonicated for 5 min using a Covaris sonicator (Hathaway et al., 2012). Input DNA and ChIP DNA was isolated according to Active Motif High Sensitivity ChIP-IT kit procedure. ChIP for H3K9me3 used Abcam (ab8898) primary antibody.
(§2) Enrichment of ChIP DNA was determined by qPCR. 384-well PCR plates contained 2 μL of template DNA and 8 μL of reaction mix of primers and FastStart Universal SYBR Green 2× master mix (Roche). Samples were run on a ViiA7 Real-Time PCR system (Applied Biosystems) (Pattenden et al., 2016). Plates were setup in technical duplicate or triplicate. Samples were analyzed using the comparative ΔΔCt method and normalized against an intergenic control region (Hathaway et al., 2012; Livak & Schmittgen, 2001). Experiment was performed in a minimum biological triplicate and data is representative of sample average. T-test were used to determine significant p-values.
(§3) To further characterize the effects of compound 2 on the HP1-heterochromatin pathway, perturbations in the levels of HP1γ, H3K4me3, and G9a at the CiA:Oct4 locus were assayed for using ChIP followed by […] analysis. Enrichment levels were determined at 489 bp downstream of the TSS and normalized to a house-keeping gene, intracisternal A-type particles (IAP). As shown previously, HP1γ functions similarly to HP1α in our inhibition assay. […] No change in H3K4me3 levels were detected upon compound 2 treatment despite the decrease in H3K9me3 (FIG. 11E). […]
(§4) Referring to FIG. 11A, CiA:Oct4 csHP1α recruiting cells were incubated with 7.5 μM compound 2+/−6 nM rapamycin for 48 hrs and representative brightfield and GFP fluorescence images were acquired at 20×. […] GFP expression was analyzed by flow cytometry. […]

HP1γ = assay: ChIP-qPCR at CiA:Oct4 locus, TSS+489
Protocol: as §1, §2, §3, §4

G9a = assay: ChIP-qPCR at CiA:Oct4 locus, TSS+489; details: four treatment conditions
Protocol: as §1, §2, §3, §4

H3K9me3 = assay: ChIP-qPCR at CiA:Oct4 locus, TSS+489; details: 48 hr, + 6 nM rapamycin, 489 bp downstream of TSS
Protocol: 10-15 cm plates of cells grown to confluence were washed with PBS and trypsinized 10 min with 0.25% trypsin-EDTA. ES media was added to quench the trypsin, and cells were resuspended prior to counting using a Countess II Automated Cell Counter (ThermoFisher). Cell suspension was centrifuged at 300×g for 5 min. Cell pellet was washed with PBS and pelleted at 300×g for 5 min. Cells were resuspended and crosslinked with 1% formaldehyde for 10 min. 2.5 M glycine (0.125 M final) was added and samples were put on ice to stop the crosslinking. […]
Enrichment of ChIP DNA was determined by qPCR. […] Samples were analyzed using the comparative ΔΔCt method and normalized against an intergenic control region (Hathaway et al., 2012; Livak & Schmittgen, 2001). […]
Chromatin immunoprecipitation (ChIP) was used to determine the levels of H3K9me3 at the Oct4 locus upon treatment with compound 2. […] For this reason, the levels of H3K9me3 were analyzed at 489 bp downstream of the TSS in all four sample conditions. qPCR was used to amplify this region in addition to an intergenic control region. […]
as §4

COc1cc2c(N[C@H]3CCCNC3)nc(N3CCCC3)nc2cc1OCCCN1CCCCC1 [compound 8, (S)-6-Methoxy-7-(3-(Piperidin-1-yl)Propoxy)-N-(Piperidin-3-yl)-2-(Pyrrolidin-1-yl)Quinazolin-4-Amine Trifluoroacetic Acid Salt]
Biological activity preserved ([1]; + 6 nM rapamycin): ~51%

COc1cc2nc(N3CCCC3)nc(N[C@@H]3CCCNC3)c2cc1OC [compound 2, (R)-6,7-Dimethoxy-N-(Piperidin-3-yl)-2-(Pyrrolidin-1-yl)Quinazolin-4-Amine Trifluoroacetic Acid Salt]
ES cell differentiation and colony morphology (CiA:Oct4 N118/N163 cells; +/- 6 nM rapamycin): did not result in gross cell differentiation or effect colony morphology | GFP expression by flow cytometry compared to untreated controls (CiA:Oct4 N118/N163 cells; with and without rapamycin): increased GFP expression | Change in H3K4me3 levels (H3K4me3): No change | Increase of HP1γ levels compared to controls (HP1γ; compound alone, no HP1 recruitment): 46% | Decrease of HP1γ levels compared to HP1 recruitment alone (HP1γ; with HP1 recruitment (rapamycin)): 37% | Change in G9a levels (G9a): No significant changes | % inhibition compared with parent compound 1 ([1]; + 6 nM rapamycin): increase in activity over the parent | Decrease of H3K9me3 enrichment compared to plus rapamycin control (H3K9me3): ~9 fold

COc1cc2nc(N3CCCC3)nc(N[C@@H]3CCCN(C(=O)OC(C)(C)C)C3)c2cc1OC [compound 6, Tert-Butyl (R)-3-((6,7-Dimethoxy-2-(Pyrrolidin-1-yl)Quinazolin-4-yl)Amino)Piperidine-1-Carboxylate]
% inhibition compared with parent compound 1 ([1]; + 6 nM rapamycin): decrease in inhibition

C=CCCCN1CCC[C@H](Nc2nc(N3CCCC3)nc3cc(OC)c(OC)cc23)C1 [compound 5, (S)-6,7-Dimethoxy-N-(1-(Pent-4-en-1-yl)Piperidin-3-yl)-2-(Pyrrolidin-1-yl)Quinazolin-4-Amine, Trifluoroacetic Acid Salt]
% inhibition compared with parent compound 1 ([1]; + 6 nM rapamycin): decrease in inhibition

CCCCCCNc1nc(N[C@H]2CCCNC2)c2cc(OC)c(OC)cc2n1 [compound 7, (S)—N^2-Hexyl-6,7-Dimethoxy-N^4-(Piperidin-3-yl)Quinazoline-2,4-Diamine]
Toxicity in SAR assay [1]: toxicity and low cell counts | % inhibition compared with parent compound 1 ([1]; + 6 nM rapamycin): decrease in inhibition

From patent publication US11254654B2, “Heterochromatin gene repression inhibitors” (The University of North Carolina at Chapel Hill, priority 2017, dated 2022)
